# In ChEMBL document CHEMBL5036364, “Cadinane-Type Sesquiterpenoids with Cytotoxic Activity from the Infected Stems of the Semi-mangrove Hibiscus tiliaceus” (J Nat Prod, 2022):
# Tests used:
# Huh-7 = assay: Cytotoxicity against human Huh-7 cells assessed as inhibition of cell growth in presence of 10% fetal bovine serum measured after 48 hrs incubation by MTT assay; assay type: functional, cell-based; conditions: Huh-7, 48 h
# HepG2 = assay: Cytotoxicity against human HepG2 cells assessed as inhibition of cell growth n presence of 10% fetal bovine serum measured after 48 hrs incubation by MTT assay; assay type: functional, cell-based; conditions: HepG2, 48 h
SMILES,IC50 (Huh-7) [µM],IC50 (HepG2) [µM]
COc1c(O)c(C)cc2c(C(C)C)cc(O)c(C=O)c12,> 10,> 10
Cc1cc2c(C(C)C)cc(O)c(C=O)c2oc1=O,4,3.7
CO[C@@]1(C)C[C@@H]2c3c(coc3C1=O)C(=O)C[C@H]2C(C)C,6.6,4.8
COc1c(C)cc2c(C(C)C)cc(O)c(C=O)c2c1O,> 10,> 10
CC(C)[C@@H]1C=Cc2coc3c2[C@H]1C[C@@H](C)C3=O,6.4,6.8
